Measured values as given in US9610263B2, “Method of modulating membrane potential of a cell” (VERSITECH LIMITED, priority 2007, dated 2017).
Entries after “also recorded” stand apart in the source; their conditions may differ.

Columns and labels:
[1] = test system: Madin-Darby canine kidney (MDCK) cells; assay: Membrane potential of living cells with bis-oxonol (DiBAC4(3)); assay type: cell-based
Text: To determine the potential of Example 2 for application in biological and medicinal science, Example 2 was investigated for incorporating into the plasma membranes of living cells and, thereby, modulating their membrane potentials by increasing chloride permeability of the cell membranes. A potential-sensitive dye his-oxonal was used to measure the relative changes in membrane potential of the Madin-Darby canine kidney (MDCK) cells, a model for the renal distal tubule and collecting duct that secrete chloride ions. An increase in fluorescence of bis-oxonal indicated cell depolarization while a decrease indicated hyperpolarization. […] This depolarization effect could be ascribed to that the chloride equilibrium potential (ECl) was higher than the resting membrane potential in MDCK cells. Thus, the opening of chloride channels shifted the membrane potential towards the ECl.
In summary, FIG. 14A-E show the effects of adding different substances, including Example 2, on the membrane potential of Madin-Darby canine kidney (MDCK) cells. Membrane potentials of MDCK cells were monitored by the changes of emission intensity of the potential-sensitive dye bis-oxonol (DiBAC4(3)). The increase in the fluorescence intensity indicates depolarization. […] Each point in FIG. 14A-E represents the mean±s.e. (n=20-80 cells in 4-6 experiments).

[2] = test system: mouse thoracic aortic rings; assay: Vasorelaxation of aortic rings preconstricted by high-K solution (organ bath); details: aortic rings preconstricted by high-K (60 mM K+) solution, n=5, read-out: half-maximal relaxation value IC50
Text: Example 52 was for investigating whether Example 2 could promote vasorelaxation during vasoconstriction induced by depolarization. Mouse thoracic aortic rings was mounted in an organ bath apparatus and measured their muscular activity.

[3] = Membrane potential of valinomycin-polarized liposomes (safranin O); assay type: biochemical; details: KCl-loaded EYPC-liposomes in KCl/Na2SO4; external addition alone
Text: The ability of Example 2 to modulate membrane potentials in polarized liposomes was investigated. […] This depolarization process induced by Example 2 may be attributed to the formation of chloride channels by Example 2 that mediate chloride ions flow out of the polarized liposomes to balance the electrostatic potential established by valinomycin.

Row | SMILES | melting point [°C] | also measured
1 | O=C(O)c1ccccc1Nc1ccccc1 [DPC, diphenylamine-2-carboxylate] | – | membrane potential (bis-oxonol fluorescence) ([1]; 1 mM added alone): hyperpolarization of the membrane potential; depolarization induced by low-chloride extracellular solution ([1]; 60 mM Cl- Ringer's solution in presence of 1 mM blocker): entirely inhibited the depolarization effect; also recorded: did not result in depolarization
2 | CC(C)C[C@@H](ONC(=O)c1cccc(C(=O)NO[C@H](CC(C)C)C(=O)OC(C)(C)C)c1)C(=O)OC(C)(C)C [Example 1] | 57 to 59 | –
3 | CCCCCCCCCCCCCCCCCCNC(=O)[C@@H](CC(C)C)ONC(=O)c1cccc(C(=O)NO[C@H](CC(C)C)C(=O)NCCCCCCCCCCCCCCCCCC)c1 [Example 5] | 88 to 90 | –
4 | CC(C)CNC(=O)[C@H](CC(C)C)NC(=O)c1cccc(C(=O)N[C@@H](CC(C)C)C(=O)NCC(C)C)c1 [Example 8] | 240 to 242 | –
5 | CC(C)CNC(=O)[C@@H](CC(C)C)ONC(=O)c1cccc(C(=O)NO[C@H](CC(C)C)C(=O)NCC(C)C)n1 [Example 7] | 175 to 177 | –
6 | CC(C)CNC(=O)[C@@H](Cc1ccccc1)ONC(=O)c1cccc(C(=O)NO[C@H](Cc2ccccc2)C(=O)NCC(C)C)c1 [Example 37] | 145 to 148 | –
7 | CC(C)CNC(=O)[C@H](CC(C)C)OC(=O)c1cccc(C(=O)O[C@@H](CC(C)C)C(=O)NCC(C)C)c1 [Example 9] | 137 to 139 | –
8 | CC(C)CNC(=O)[C@@H](CC(C)C)ONC(=O)c1cccc(C(=O)NO[C@H](CC(C)C)C(=O)NCC(C)C)c1 [Example 2] | – | IC50 [2]: 8.42 ± 0.18 µM
9 | CC(C)CNC(=O)[C@@H](CO)ONC(=O)c1cccc(C(=O)NO[C@H](CO)C(=O)NCC(C)C)c1 [Example 36] | 174 to 176 | –
10 | CC(C)[C@@H]1NC(=O)[C@H](C)OC(=O)[C@@H](C(C)C)NC(=O)[C@@H](C(C)C)OC(=O)[C@H](C(C)C)NC(=O)[C@H](C)OC(=O)[C@@H](C(C)C)NC(=O)[C@@H](C(C)C)OC(=O)[C@H](C(C)C)NC(=O)[C@H](C)OC(=O)[C@@H](C(C)C)NC(=O)[C@@H](C(C)C)OC1=O [valinomycin] | – | membrane potential of liposomes [3]: polarized the liposome
11 | CC(C)CNC(=O)[C@@H](CC(C)C)ONC(=O)c1ccccc1 [Example 6] | 130 to 132 | –
